In BindingDB's records for doi:10.1016/j.bmc.2006.09.047 (Astellas Pharma, 2007):
pIC50: −log10 of the molar value.

Target: PI3-kinase p110α (Bos taurus)
Assay: The test compounds and enzyme were mixed in buffer, and the substrate and [gamma-33P] ATP/ATP were added to the mixture to initiate the reaction. After allowing the reaction to proceed at room temperature for 120 min, wheat germ agglutinin-coated SPA beads (Amersham) was added. The mixture was left to stand for 5 min and then centrifuged. Radi
Settings: pH 7.4

| Compound | pIC50 |
| --- | --- |
| Cc1nc2ccc(Cl)cn2c1-c1ccn(S(=O)(=O)c2ccc([N+](=O)[O-])cc2)n1 [3-{6-chloro-2-methylimidazo[1,2-a]pyridin-3-yl}-1-[(4-nitrobenzene)sulfonyl]-1H-pyrazole] | < 4.52 |
| Cc1ccc([N+](=O)[O-])cc1S(=O)(=O)n1ccc(-c2cnc3ccc(Cl)cn23)c1 [3-{6-chloroimidazo[1,2-a]pyridin-3-yl}-1-[(2-methyl-5-nitrobenzene)sulfonyl]-1H-pyrrole] | 7.00 |
